# Tests used:
# Assay in all cases: in vitro antibacterial activity, agar dilution MIC
# Format in all cases: cell-based
# [1] = tested on: Enterococcus faecium ATCC 8043; conditions: organism code II, BHI agar, 35-37 °C, 20 to 24 hours
# Description: (§1) Erythromycin A was used for this purpose.
# (§2) After incubation, each plate was visually inspected.
# [2] = tested on: Escherichia coli JUHL; conditions: organism code QQ, BHI agar, 35-37 °C, 20 to 24 hours
# Description: as §1, §2
# [3] = tested on: Escherichia coli SS; conditions: organism code RR, BHI agar, 35-37 °C, 20 to 24 hours
# Description: as §1, §2
# [4] = tested on: Haemophilis Influenzae DILL AMP R; conditions: organism code WW, BHI agar, 35-37 °C, 20 to 24 hours
# Description: as §1, §2
# [5] = tested on: Micrococcus luteus ATCC 4698; conditions: organism code PP, BHI agar, 35-37 °C, 20 to 24 hours
# Description: as §1, §2
# [6] = tested on: Micrococcus luteus ATCC 9341; conditions: organism code OO, BHI agar, 35-37 °C, 20 to 24 hours
# Description: as §1, §2
# [7] = tested on: Nocardia Asteroides ATCC9970; conditions: organism code VV, BHI agar, 35-37 °C, 20 to 24 hours
# Description: as §1, §2
# [8] = tested on: Staphylococcus aureus CMX 553; conditions: organism code FF, BHI agar, 35-37 °C, 20 to 24 hours
# Description: as §1, §2
# [9] = tested on: Staphylococcus aureus CMX 642A; conditions: organism code DD, BHI agar, 35-37 °C, 20 to 24 hours
# Description: as §1, §2
# [10] = tested on: Staphylococcus aureus NCTC10649M; conditions: organism code EE, BHI agar, 35-37 °C, 20 to 24 hours
# Description: as §1, §2
# [11] = tested on: Staphylococcus epidermidis 3519; conditions: organism code HH, BHI agar, 35-37 °C, 20 to 24 hours
# Description: as §1, §2
# [12] = tested on: Streptococcus Pheumoniae 5649; conditions: organism code ZZA, BHI agar, 35-37 °C, 20 to 24 hours
# Description: as §1, §2
# [13] = tested on: Streptococcus Pheumoniae GYR 1171; conditions: organism code YY, BHI agar, 35-37 °C, 20 to 24 hours
# Description: as §1, §2
# [14] = tested on: Staphylococcus aureus ATCC 6538P; parameters: unit not given here; conditions: organism code AA, BHI agar, 35-37 °C, 20 to 24 hours
# Description: as §1, §2
# [15] = tested on: Streptococcus Pheumoniae ATCC6303; parameters: unit not given here; conditions: organism code XX, BHI agar, 35-37 °C, 20 to 24 hours
# Description: as §1, §2
# [16] = tested on: Streptococcus agalactiae CMX 508; parameters: unit not given here; conditions: organism code KK, BHI agar, 35-37 °C, 20 to 24 hours
# Description: as §1, §2
# [17] = tested on: Streptococcus bovis A-5169; parameters: unit not given here; conditions: organism code JJ, BHI agar, 35-37 °C, 20 to 24 hours
# Description: as §1, §2
# [18] = tested on: Streptococcus pyogenes EES61; parameters: unit not given here; conditions: organism code LL, BHI agar, 35-37 °C, 20 to 24 hours
# Description: as §1, §2
# [19] = tested on: Candida albicans CCH 442; conditions: organism code TT, BHI agar, 35-37 °C, 20 to 24 hours
# Description: (§3) Representative compounds of the present invention were assayed in vitro for antibacterial activity as follows: Twelve petri dishes containing successive aqueous dilutions of the test compound mixed with 10 mL of sterilized Brain Heart Infusion (BHI) agar (Difco 0418-01-5) were prepared. Each plate was inoculated with 1:100 (or 1:10 for slow-growing strains, such as Micrococcus and Streptococcus) dilutions of up to 32 different microorganisms, using a Steers replicator block. […] In addition, a control plate, using BHI agar containing no test compound, was prepared and incubated at the beginning and end of each test
# (§4) An additional plate containing a compound having known susceptibility patterns for the organisms being tested and belonging to the same antibiotic class as the test compound was also prepared and incubated as a further control, as well as to provide test-to-test comparability.
# (§5) After incubation, each plate was visually inspected. The minimum inhibitory concentration (MIC) was defined as the lowest concentration of drug yielding no growth, a slight haze, or sparsely isolated colonies on the inoculum spot as compared to the growth control.
# [20] = tested on: Escherichia coli DC-2; conditions: organism code SS, BHI agar, 35-37 °C, 20 to 24 hours
# Description: as §3, §4, §5
# [21] = tested on: Staphylococcus aureus 1775; conditions: organism code GG, BHI agar, 35-37 °C, 20 to 24 hours
# Description: as §3, §4, §5
# [22] = tested on: Staphylococcus aureus A-5278; conditions: organism code CC, BHI agar, 35-37 °C, 20 to 24 hours
# Description: as §3, §4, §5
# [23] = tested on: Streptococcus Pheumoniae 5979; conditions: organism code ZZ, BHI agar, 35-37 °C, 20 to 24 hours
# Description: as §3, §4, §5
# [24] = tested on: Streptococcus pyogenes 930; conditions: organism code MM, BHI agar, 35-37 °C, 20 to 24 hours
# Description: as §3, §4, §5
# [25] = tested on: Streptococcus pyogenes PIU 2548; conditions: organism code NN, BHI agar, 35-37 °C, 20 to 24 hours
# Description: as §3, §4, §5
# [26] = tested on: Mycobacterium smegmatis ATCC 114; parameters: unit not given here; conditions: organism code UU, BHI agar, 35-37 °C, 20 to 24 hours
# Description: as §3, §4, §5
# [27] = tested on: Staphylococcus aureus A5177; parameters: unit not given here; conditions: organism code BB, BHI agar, 35-37 °C, 20 to 24 hours
# Description: as §3, §4, §5
smiles,measurement,setting,value
"CC[C@H]1OC(=O)[C@H](C)[C@@H](O[C@H]2C[C@@](C)(OC)[C@@H](O)[C@H](C)O2)[C@H](C)[C@@H](O[C@@H]2O[C@H](C)C[C@H](N(C)C)[C@H]2O)[C@@]2(C)C[C@@H](C)C(=O)[C@H](C)[C@H]3N(CCCCO2)C(=O)O[C@]13C [Example 15, Compound of Formula (I), R^p is H, m is 3, A is absent, B is absent, D is absent, E is absent, n is 1]",minimum inhibitory concentration (MIC),[1],0.1
same,minimum inhibitory concentration (MIC),[2],>100
same,minimum inhibitory concentration (MIC),[3],3.1
same,minimum inhibitory concentration (MIC),[4],32
same,minimum inhibitory concentration (MIC),[5],0.39
same,minimum inhibitory concentration (MIC),[6],0.05
same,minimum inhibitory concentration (MIC),[7],0.1
same,minimum inhibitory concentration (MIC),[8],0.39
same,minimum inhibitory concentration (MIC),[9],0.39
same,minimum inhibitory concentration (MIC),[10],0.78
same,minimum inhibitory concentration (MIC),[11],0.39
same,minimum inhibitory concentration (MIC),[12],16
same,minimum inhibitory concentration (MIC),[13],0.03
same,minimum inhibitory concentration (MIC),[14],0.39
same,minimum inhibitory concentration (MIC),[15],0.03
same,minimum inhibitory concentration (MIC),[16],0.05
same,minimum inhibitory concentration (MIC),[17],0.05
same,minimum inhibitory concentration (MIC),[18],0.1
same,minimum inhibitory concentration (MIC),[19],>100
same,minimum inhibitory concentration (MIC),[20],>100
same,minimum inhibitory concentration (MIC),[21],>100
same,minimum inhibitory concentration (MIC),[22],>100
same,minimum inhibitory concentration (MIC),[23],>128
same,minimum inhibitory concentration (MIC),[24],>100
same,minimum inhibitory concentration (MIC),[25],6.2
same,minimum inhibitory concentration (MIC),[26],1.56
same,minimum inhibitory concentration (MIC),[27],3.1
"CC[C@H]1OC(=O)[C@H](C)C(=O)[C@H](C)[C@@H](O[C@@H]2O[C@H](C)C[C@H](N(C)C)[C@H]2O)[C@@]2(C)C[C@@H](C)C(=O)[C@H](C)[C@H]3N(CC=CCO2)C(=O)O[C@]13C [Example 16, Compound of Formula (II), R^p is H, m is 1, A is absent, B is absent, D is absent, E is-(CH2)r-CH=CH-, r is 0, n is 1]",minimum inhibitory concentration (MIC),[1],0.2
same,minimum inhibitory concentration (MIC),[2],>100
same,minimum inhibitory concentration (MIC),[3],0.78
same,minimum inhibitory concentration (MIC),[4],32
same,minimum inhibitory concentration (MIC),[5],0.39
same,minimum inhibitory concentration (MIC),[6],0.2
same,minimum inhibitory concentration (MIC),[7],0.39
same,minimum inhibitory concentration (MIC),[8],0.39
same,minimum inhibitory concentration (MIC),[9],0.39
same,minimum inhibitory concentration (MIC),[10],0.39
same,minimum inhibitory concentration (MIC),[11],0.39
same,minimum inhibitory concentration (MIC),[12],0.5
same,minimum inhibitory concentration (MIC),[13],0.25
same,minimum inhibitory concentration (MIC),[14],0.39
same,minimum inhibitory concentration (MIC),[15],0.25
same,minimum inhibitory concentration (MIC),[16],0.2
same,minimum inhibitory concentration (MIC),[17],0.2
same,minimum inhibitory concentration (MIC),[18],0.2
same,minimum inhibitory concentration (MIC),[19],>100
same,minimum inhibitory concentration (MIC),[20],>100
same,minimum inhibitory concentration (MIC),[21],>100
same,minimum inhibitory concentration (MIC),[22],>100
same,minimum inhibitory concentration (MIC),[23],>128
same,minimum inhibitory concentration (MIC),[24],>100
same,minimum inhibitory concentration (MIC),[25],0.39
same,minimum inhibitory concentration (MIC),[26],6.2
same,minimum inhibitory concentration (MIC),[27],0.39
"CC[C@H]1OC(=O)[C@H](C)[C@@H](O[C@H]2C[C@@](C)(OC)[C@@H](O)[C@H](C)O2)[C@H](C)[C@@H](O[C@@H]2O[C@H](C)C[C@H](N(C)C)[C@H]2O)[C@@]2(C)C[C@@H](C)C(=O)[C@H](C)[C@H]3N(CC(O)CC=CCO2)C(=O)O[C@]13C (stereo partly drawn) [Example 19, Compound of Formula (I), R^p is H, m is 1, A is absent, B is -CHOH-(CH2)q-, q is 1, D is absent, E is -(CH2)r-CH=CH-, r is 0, n is 1]",minimum inhibitory concentration (MIC),[1],0.1
same,minimum inhibitory concentration (MIC),[2],25
same,minimum inhibitory concentration (MIC),[3],0.78
same,minimum inhibitory concentration (MIC),[4],8
same,minimum inhibitory concentration (MIC),[5],0.78
same,minimum inhibitory concentration (MIC),[6],0.05
same,minimum inhibitory concentration (MIC),[7],0.05
same,minimum inhibitory concentration (MIC),[8],0.78
same,minimum inhibitory concentration (MIC),[9],0.78
same,minimum inhibitory concentration (MIC),[10],0.78
same,minimum inhibitory concentration (MIC),[11],0.78
same,minimum inhibitory concentration (MIC),[12],16
same,minimum inhibitory concentration (MIC),[13],0.03
same,minimum inhibitory concentration (MIC),[14],0.39
same,minimum inhibitory concentration (MIC),[15],0.03
same,minimum inhibitory concentration (MIC),[16],0.05
same,minimum inhibitory concentration (MIC),[17],0.02
same,minimum inhibitory concentration (MIC),[18],0.05
same,minimum inhibitory concentration (MIC),[19],>100
same,minimum inhibitory concentration (MIC),[20],>100
same,minimum inhibitory concentration (MIC),[21],>100
same,minimum inhibitory concentration (MIC),[22],>100
same,minimum inhibitory concentration (MIC),[23],>128
same,minimum inhibitory concentration (MIC),[24],>100
same,minimum inhibitory concentration (MIC),[25],12.5
same,minimum inhibitory concentration (MIC),[26],0.39
same,minimum inhibitory concentration (MIC),[27],3.1

# Source: patent EP1027361B1, “6,11-BRIDGED ERYTHROMYCIN DERIVATIVES” (Abbott Laboratories, priority 1997, dated 1999)
